This is an account of results in BindingDB's records for doi:10.3109/14756366.2010.486794 (University of Lisbon, 2011).

A word on the Ki: it is the dissociation constant of the complex between target and ligand, obtained from inhibition or displacement. A low value points to tighter binding.

This test concerns the target T1, Neutrophil elastase (Homo sapiens, UniProt P08246).
T1 sequence (P08246 whole entry): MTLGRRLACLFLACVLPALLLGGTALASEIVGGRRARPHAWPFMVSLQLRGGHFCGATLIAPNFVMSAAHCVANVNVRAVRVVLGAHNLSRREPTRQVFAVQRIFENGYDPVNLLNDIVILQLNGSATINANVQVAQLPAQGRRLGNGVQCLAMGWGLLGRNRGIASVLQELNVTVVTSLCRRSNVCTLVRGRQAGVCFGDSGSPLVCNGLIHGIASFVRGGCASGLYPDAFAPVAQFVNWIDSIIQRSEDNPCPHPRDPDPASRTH
Briefly: Enzyme Kinetic Assay. Particulars: 25 °C. Here is the method: The inhibition of the HLE was studied at 25°C by continuously monitoring the absorbance at 410 nm for 20 min of a solution prepared by mixing 10 μL of HLE stock solution (2 μM in 0.05M acetate buffer, pH 5.5) with a solution containing 10 μL of 5 in DMSO, 20 μL of MeOSuc-Ala-Ala-Pro-Val-p-NA (50 mM in DMSO) and 960 μL of 0.1M pH 7.2 HEPES buffer. Control assays, in which the inhibitor was omitted, ran linearly.

Molecule `CCC1(CC)C(=O)N(c2ccc(CS(=O)(=O)c3ccccc3)cc2)C1=O` [4-oxo-β-lactam (3)] showed an inhibition constant (Ki) of 0.63 nM. This lies in the sub-nanomolar range.
